According to ChEMBL document CHEMBL5252585, “Structure optimization and discovery of novel compound for the treatment of insertion mutations within exon 20 of EGFR and HER2” (Bioorg Med Chem, 2023):

Key:
BaF3 = assay: Antiproliferative activity against mouse BAF3 cells harboring FL-EGFR A763-Y764 ins FQEA mutant after 72 hrs by celltiter-Glo luminescence assay; format: functional, cell-based; details: BaF3, 72 h
[1] = target: T1, Ephrin type-A receptor 6 (Homo sapiens) (UniProt Q9UF33); assay: Inhibition of EPHA6 (unknown origin) at 500 nM relative to control
T1 sequence (whole entry): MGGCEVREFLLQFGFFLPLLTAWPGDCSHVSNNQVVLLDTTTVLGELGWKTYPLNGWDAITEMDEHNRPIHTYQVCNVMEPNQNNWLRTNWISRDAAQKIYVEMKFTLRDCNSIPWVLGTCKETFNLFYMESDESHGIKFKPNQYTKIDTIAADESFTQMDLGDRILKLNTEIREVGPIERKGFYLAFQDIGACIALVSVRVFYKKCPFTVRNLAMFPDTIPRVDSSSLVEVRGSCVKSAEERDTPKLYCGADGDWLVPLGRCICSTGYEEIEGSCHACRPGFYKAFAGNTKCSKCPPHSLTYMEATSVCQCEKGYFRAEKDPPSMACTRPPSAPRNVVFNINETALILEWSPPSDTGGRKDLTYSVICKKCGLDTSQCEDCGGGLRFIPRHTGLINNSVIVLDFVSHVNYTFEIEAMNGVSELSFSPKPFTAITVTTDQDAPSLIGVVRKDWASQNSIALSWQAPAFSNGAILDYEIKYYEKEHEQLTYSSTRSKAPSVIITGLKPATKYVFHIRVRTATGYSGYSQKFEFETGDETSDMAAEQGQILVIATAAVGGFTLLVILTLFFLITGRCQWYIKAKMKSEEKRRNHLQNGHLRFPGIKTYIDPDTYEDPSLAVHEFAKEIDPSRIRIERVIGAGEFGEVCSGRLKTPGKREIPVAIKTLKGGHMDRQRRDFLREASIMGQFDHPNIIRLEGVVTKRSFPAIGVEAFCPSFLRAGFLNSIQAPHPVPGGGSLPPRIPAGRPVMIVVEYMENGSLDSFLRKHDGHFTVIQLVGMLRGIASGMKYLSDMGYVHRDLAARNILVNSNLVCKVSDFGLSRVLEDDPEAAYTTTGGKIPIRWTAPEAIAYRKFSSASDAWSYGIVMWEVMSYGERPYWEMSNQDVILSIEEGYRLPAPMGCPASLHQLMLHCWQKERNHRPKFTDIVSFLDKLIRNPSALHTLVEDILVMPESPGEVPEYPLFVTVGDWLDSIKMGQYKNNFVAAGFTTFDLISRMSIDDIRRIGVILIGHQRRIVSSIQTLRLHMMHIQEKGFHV

[2] = target: Tyrosine-protein kinase BTK (Homo sapiens) (UniProt Q06187); assay: Inhibition of BTK (unknown origin) at 500 nM relative to control
Chain of Tyrosine-protein kinase BTK (Homo sapiens) (Q06187 whole entry): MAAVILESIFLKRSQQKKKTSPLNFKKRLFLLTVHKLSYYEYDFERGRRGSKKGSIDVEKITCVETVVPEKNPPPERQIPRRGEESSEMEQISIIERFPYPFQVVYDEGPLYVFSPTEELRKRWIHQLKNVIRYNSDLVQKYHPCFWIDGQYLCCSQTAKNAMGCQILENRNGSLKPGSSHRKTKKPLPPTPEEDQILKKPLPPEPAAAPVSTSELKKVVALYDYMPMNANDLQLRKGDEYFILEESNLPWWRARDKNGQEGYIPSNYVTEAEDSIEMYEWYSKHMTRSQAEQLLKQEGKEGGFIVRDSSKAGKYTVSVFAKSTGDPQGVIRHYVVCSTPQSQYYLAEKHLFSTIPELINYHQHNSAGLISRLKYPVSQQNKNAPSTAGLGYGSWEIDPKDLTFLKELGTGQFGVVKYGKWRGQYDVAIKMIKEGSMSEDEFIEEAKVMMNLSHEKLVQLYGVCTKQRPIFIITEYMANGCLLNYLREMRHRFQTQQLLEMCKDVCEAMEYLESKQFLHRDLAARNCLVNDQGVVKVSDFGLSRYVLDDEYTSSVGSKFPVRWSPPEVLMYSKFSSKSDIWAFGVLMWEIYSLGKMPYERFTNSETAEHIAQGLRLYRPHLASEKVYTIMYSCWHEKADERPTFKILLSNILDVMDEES

[3] = target: T2, Ephrin type-A receptor 3 (Homo sapiens) (UniProt P29320); assay: Inhibition of EPHA3 (unknown origin) at 500 nM relative to control
T2 sequence (whole entry): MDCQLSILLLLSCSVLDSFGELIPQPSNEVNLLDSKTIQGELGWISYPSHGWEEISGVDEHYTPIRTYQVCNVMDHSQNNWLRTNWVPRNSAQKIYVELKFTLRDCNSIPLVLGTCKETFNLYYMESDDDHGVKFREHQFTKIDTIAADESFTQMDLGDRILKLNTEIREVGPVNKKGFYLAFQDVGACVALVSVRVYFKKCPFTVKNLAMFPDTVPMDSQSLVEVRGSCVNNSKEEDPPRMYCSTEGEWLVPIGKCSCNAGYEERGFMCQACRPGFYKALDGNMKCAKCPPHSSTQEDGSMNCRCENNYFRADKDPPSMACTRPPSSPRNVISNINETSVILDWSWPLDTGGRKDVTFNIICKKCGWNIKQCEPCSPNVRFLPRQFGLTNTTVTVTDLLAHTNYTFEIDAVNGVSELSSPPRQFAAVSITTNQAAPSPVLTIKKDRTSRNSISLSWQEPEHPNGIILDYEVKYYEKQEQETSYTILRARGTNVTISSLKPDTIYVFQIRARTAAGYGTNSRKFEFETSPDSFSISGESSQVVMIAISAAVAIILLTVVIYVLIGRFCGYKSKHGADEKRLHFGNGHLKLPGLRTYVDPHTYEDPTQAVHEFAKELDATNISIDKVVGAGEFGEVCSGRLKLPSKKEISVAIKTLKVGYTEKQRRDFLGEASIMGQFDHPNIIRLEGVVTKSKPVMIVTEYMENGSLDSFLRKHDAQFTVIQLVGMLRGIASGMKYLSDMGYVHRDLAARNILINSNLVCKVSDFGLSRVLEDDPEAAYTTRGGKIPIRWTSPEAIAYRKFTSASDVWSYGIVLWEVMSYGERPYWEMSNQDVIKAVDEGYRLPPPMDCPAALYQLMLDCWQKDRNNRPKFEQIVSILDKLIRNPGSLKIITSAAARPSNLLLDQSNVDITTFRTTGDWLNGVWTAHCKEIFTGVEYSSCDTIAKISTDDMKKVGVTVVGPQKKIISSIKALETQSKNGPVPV

[4] = target: T3, Tyrosine-protein kinase Tec (Homo sapiens) (UniProt P42680); assay: Inhibition of TEC (unknown origin) at 500 nM relative to control
T3 sequence (whole entry): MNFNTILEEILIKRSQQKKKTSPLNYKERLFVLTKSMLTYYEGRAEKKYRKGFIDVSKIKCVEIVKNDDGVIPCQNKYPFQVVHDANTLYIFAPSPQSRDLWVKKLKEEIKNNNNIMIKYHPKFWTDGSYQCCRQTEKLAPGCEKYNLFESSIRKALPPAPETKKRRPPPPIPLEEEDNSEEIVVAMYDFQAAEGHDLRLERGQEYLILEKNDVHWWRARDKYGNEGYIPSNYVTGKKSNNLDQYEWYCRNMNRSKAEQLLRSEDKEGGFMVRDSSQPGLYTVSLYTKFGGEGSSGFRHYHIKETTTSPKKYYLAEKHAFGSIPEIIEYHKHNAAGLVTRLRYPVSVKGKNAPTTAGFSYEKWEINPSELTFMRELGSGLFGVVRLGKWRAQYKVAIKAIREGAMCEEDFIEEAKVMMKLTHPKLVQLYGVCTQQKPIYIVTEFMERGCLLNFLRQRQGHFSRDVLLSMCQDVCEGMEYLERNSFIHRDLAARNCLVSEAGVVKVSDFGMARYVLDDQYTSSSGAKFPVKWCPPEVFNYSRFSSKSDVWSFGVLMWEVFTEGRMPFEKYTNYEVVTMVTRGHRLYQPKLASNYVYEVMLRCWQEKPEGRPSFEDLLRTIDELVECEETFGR

[5] = target: Tyrosine-protein kinase Blk (Homo sapiens) (UniProt P51451); assay: Inhibition of BLK (unknown origin) at 500 nM relative to control
Chain of Tyrosine-protein kinase Blk (Homo sapiens) (P51451 2-505 limits assumed): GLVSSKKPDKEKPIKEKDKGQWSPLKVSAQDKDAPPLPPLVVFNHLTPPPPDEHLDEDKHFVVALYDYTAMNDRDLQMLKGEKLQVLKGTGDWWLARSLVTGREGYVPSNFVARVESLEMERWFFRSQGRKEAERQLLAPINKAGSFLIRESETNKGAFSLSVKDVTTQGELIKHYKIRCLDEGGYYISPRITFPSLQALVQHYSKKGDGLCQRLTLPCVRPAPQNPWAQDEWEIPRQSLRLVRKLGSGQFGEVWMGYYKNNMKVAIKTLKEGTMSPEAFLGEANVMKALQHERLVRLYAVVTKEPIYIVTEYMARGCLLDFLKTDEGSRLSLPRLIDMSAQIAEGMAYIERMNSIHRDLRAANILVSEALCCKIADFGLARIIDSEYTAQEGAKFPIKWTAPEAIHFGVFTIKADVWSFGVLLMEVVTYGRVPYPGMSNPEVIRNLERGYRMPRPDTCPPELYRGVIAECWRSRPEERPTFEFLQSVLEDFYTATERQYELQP

[6] = AUC(0 to t) in Sprague-Dawley rat at 10 mg/kg, po measured upto 8 hrs by LC-MS/MS analysis; format: ADME, organism-based; parameters: dose 10 mg/kg, time < 8 hrs, route po; details: in vivo
[7] = Clearance in Sprague-Dawley rat at 10 mg/kg, po measured upto 8 hrs by LC-MS/MS analysis; format: ADME, organism-based; details: in vivo
[8] = target: Receptor tyrosine-protein kinase erbB-2 (Homo sapiens, UniProt P04626); details: dose 500.0 nM
Chain of Receptor tyrosine-protein kinase erbB-2 (P04626 whole entry): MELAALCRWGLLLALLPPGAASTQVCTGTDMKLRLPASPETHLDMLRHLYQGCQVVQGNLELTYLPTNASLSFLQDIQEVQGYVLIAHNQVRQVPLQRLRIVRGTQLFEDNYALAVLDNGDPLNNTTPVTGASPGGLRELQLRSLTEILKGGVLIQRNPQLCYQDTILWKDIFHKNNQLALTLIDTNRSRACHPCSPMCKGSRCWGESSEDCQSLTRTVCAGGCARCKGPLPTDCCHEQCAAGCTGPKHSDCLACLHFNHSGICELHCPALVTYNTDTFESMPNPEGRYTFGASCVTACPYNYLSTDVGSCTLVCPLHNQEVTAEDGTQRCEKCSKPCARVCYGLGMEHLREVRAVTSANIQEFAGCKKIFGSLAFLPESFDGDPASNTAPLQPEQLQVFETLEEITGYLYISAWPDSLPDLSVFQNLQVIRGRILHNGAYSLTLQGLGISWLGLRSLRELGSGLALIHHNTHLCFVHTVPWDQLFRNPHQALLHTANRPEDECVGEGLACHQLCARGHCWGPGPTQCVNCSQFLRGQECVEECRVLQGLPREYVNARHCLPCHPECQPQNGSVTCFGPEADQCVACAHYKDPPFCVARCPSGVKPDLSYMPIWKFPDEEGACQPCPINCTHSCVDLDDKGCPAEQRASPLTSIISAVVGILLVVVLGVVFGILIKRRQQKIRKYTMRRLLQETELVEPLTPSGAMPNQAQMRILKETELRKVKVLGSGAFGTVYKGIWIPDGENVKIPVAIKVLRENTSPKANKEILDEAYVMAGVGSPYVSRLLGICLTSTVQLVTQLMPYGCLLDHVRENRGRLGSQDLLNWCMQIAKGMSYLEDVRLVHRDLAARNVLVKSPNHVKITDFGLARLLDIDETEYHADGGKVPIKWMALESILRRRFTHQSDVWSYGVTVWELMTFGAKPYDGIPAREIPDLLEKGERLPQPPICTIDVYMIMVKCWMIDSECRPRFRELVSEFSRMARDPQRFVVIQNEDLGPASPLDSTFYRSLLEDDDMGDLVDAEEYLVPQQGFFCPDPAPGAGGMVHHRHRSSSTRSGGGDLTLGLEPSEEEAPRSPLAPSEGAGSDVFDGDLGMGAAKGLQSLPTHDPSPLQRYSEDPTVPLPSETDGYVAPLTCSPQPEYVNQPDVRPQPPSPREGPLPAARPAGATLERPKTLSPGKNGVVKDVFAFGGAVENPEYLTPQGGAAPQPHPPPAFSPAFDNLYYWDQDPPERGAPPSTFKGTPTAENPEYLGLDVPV
Description: Inhibition of HER2 (unknown origin) at 500 nM relative to control

- IC50 (BaF3): 0.29 nM
- inhibition [1]: > 20%
- inhibition [2]: > 20%
- inhibition [3]: > 20%
- inhibition [4]: > 20%
- inhibition [5]: > 20%
- AUC(0-t) at 8 h [6]: 9500 ng·h/mL
- CL/F [7]: 2.96 mL/min
- inhibition [8]: 100%
SMILES: C=CC(=O)N1CCC(Oc2cc3c(Nc4cccc(Cl)c4F)ncnc3cc2O[C@H]2CCOC2)CC1
